Laboratory results taken from patent publication US12544375B2, “Small molecule therapeutic for parkinson's disease paired with a biomarker of therapeutic activity” (The Board of Trustees of the Leland Stanford Junior …, priority 2019, dated 2026).

Tests used:
[1] = test system: healthy-1 or PD-2 fibroblasts; experiment: Peroxisome movement or distribution, EGFP-peroxisome live imaging; type: cell-based, human; conditions: 10 μM for 30 hrs
Description: (§1) FIG. 8. Related to FIG. 2-4. Miro1 Reducer in Human Cell and Fly Models. (A) Fibroblasts from Healthy-1 and PD-2 were treated, lysed, and blotted as indicated. Band intensities are normalized to those of GAPDH from the same blots and compared to “Healthy-1, no treatment”. n=4 independent experiments. (B) Fibroblasts from PD-2 were treated and immunostained as indicated. The intensity was quantified for each cell across 264-320 cells from 3 independent experiments, compared to “no treatment”. (C) Fibroblasts were treated, immunoprecipitated (IPed) with anti-Miro1, and blotted as indicated. Similar results were observed twice. (D) Similar as in (C), fibroblasts were treated as indicated, and IPed with anti-Miro1. The GTPase activity of the IPed Miro1 protein was measured as described in Method. […] The MitoSox intensity was quantified for each cell across 106-161 cells from 3 coverslips. […] The TMRM intensity was measured for each cell across 48-60 cells from 3 independent experiments, and expressed as a fraction of the mean of “Healthy-1, no treatment”. […] The movement (the intensity of non-yellow) was quantified for each cell as described in (Tsai et al., 2014) across 22-31 cells from 3 transfections. […] (1) Left: The percentage of TH-positive iPSC-derived neurons out of total cells (Dapi-positive) is calculated after immunocytochemistry under 20× as described in FIG. 3. […]

fibroblasts = experiment: Cytotoxicity: mitochondrial matrix and cytosolic proteins in fibroblasts with CCCP; type: cell-based, human; conditions: combined with CCCP treatment for 6 hrs
Description: FIG. 2A-FIG. 2F. Miro1 Reducer Eliminates the Miro1 Defect in PD Fibroblasts. (FIG. 2A) Chemical properties of Miro1 Reducer. (FIG. 2B) Wild-type flies (w^1118) were fed with DMSO alone (0 μM Miro1 Reducer) or Miro1 Reducer in DMSO at 250 μM for 7 days, and lysed and blotted as indicated. The band intensities are normalized to those of Tubulin from the same blots. n=4. (FIG. 2C-FIG. 2E) Fibroblasts were treated, lysed, and blotted as indicated. (FIG. 2C) Band intensities are normalized to those of GAPDH from the same blots and compared to “Healthy-1, no treatment” except otherwise indicated. n=4. (FIG. 2D) Band intensities are normalized to those of ATP5β from the same blots and expressed as a percentage of the mean of “0 μM Miro1 Reducer with CCCP”. Mean±S.E.M is shown. n=3. (FIG. 2E) Band intensities are normalized to those of GAPDH from the same blots and compared to “Healthy-1, no CCCP, no MG132” except otherwise indicated. n=4. (FIG. 2F) Healthy-1 and PD-2 fibroblasts were transfected as indicated, and immunostained with anti-Myc (Miro1, green) and stained with Dapi (blue). The Miro1 intensity is normalized to that of mito-dsRed from the same cell and quantified across 37-62 cells from 5 fields each transfection, 3 independent transfections. Scale bars: 50 μm. For (FIG. 2C-FIG. 2F), both CCCP and Miro1 Reducer were dissolved in DMSO. […]

Miro1 = biological target: T1, Miro1 (Homo sapiens, UniProt Q8IXI2); experiment: GTPase activity of Miro1 IPed from fibroblasts; type: biochemical; conditions: PD-2 fibroblasts, basal or depolarized condition
T1 construct: We applied compound 3 to fibroblasts from one sporadic PD patient (PD-2); endogenous in cells; host or cells: human skin fibroblasts (PD-2, Healthy-1 and further PD/control lines)
T1 sequence (Q8IXI2 whole entry): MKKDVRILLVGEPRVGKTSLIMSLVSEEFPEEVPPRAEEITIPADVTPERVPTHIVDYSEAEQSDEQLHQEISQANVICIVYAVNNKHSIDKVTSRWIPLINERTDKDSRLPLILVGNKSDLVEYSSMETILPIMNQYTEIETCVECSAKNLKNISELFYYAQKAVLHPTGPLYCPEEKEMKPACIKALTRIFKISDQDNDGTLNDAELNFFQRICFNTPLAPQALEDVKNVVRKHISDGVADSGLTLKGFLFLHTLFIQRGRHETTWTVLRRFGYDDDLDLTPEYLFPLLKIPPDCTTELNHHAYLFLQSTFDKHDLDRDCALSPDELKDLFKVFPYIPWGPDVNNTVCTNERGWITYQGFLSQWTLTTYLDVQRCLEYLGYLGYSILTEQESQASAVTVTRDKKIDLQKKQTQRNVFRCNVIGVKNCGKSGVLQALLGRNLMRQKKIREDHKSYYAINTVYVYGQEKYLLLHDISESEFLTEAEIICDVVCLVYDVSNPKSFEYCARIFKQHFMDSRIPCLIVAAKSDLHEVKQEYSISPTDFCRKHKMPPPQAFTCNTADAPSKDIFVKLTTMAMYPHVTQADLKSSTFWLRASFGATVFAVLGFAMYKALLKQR
Description: as §1

O=C(Nc1ccc(Nc2cc(-n3ccnc3)ncn2)cc1)Nc1cccc(F)c1 [Miro1 Reducer]
peroxisome movement or distribution [1]: did not affect
concentrations impacting multiple mitochondrial matrix and cytosolic proteins, indicating cytotoxicity (fibroblasts): > 25 µM
GTPase activity of IPed Miro1 (Miro1): did not affect
